Assay results taken from patent US20080248511A1, “METHODS TO QUENCH LIGHT FROM OPTICAL REACTIONS” (priority 2007, published 2008).
Read-outs that look alike come from different tables or passages of the source.

What was measured:
[1] = biological target: T1, Renilla luciferase (Renilla reniformis, UniProt P27652); test: biochemical; assay type: biochemical; settings: for remaining activity at 0.5 %: read-out: Retained Renilla Luciferase Luminescence (%)
T1 sequence (P27652 1-311): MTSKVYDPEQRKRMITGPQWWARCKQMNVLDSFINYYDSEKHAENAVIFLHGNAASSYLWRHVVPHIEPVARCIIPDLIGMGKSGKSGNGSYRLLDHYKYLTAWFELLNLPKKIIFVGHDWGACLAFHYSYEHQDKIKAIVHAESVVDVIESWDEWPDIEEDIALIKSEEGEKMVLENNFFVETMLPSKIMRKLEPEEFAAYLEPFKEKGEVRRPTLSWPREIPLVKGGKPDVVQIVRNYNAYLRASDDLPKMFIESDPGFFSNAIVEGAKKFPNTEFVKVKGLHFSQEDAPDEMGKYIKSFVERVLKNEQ
Protocol: (§1) The retained luminescence for each luciferase was calculated by dividing the luminescence in the presence of the detergent by the luminescence in the absence of the test detergent. The selectivity value for each of the test detergents was determined by dividing the retained firefly luciferase luminescence by the retained Renilla luciferase luminescence.
(§2) A set of detergents (Table 2; Sigma-Aldrich) was added at 0.5% (from a 5% or 10% stock solution) to either Luciferase Assay Reagent (Promega) or Renilla Luciferase Assay Reagent (Promega) and allowed to equilibrate at room temperature.
(§3) The firefly luciferase and Renilla luciferase enzymes were diluted as follows. Firefly luciferase was diluted to 14 ng/ml in Phosphate Buffered Saline (PBS) containing 0.1% of the protein carrier Prionex® (Pentapharm). Renilla luciferase was diluted to 10 ng/ml in 1× Renilla Luciferase Lysis Buffer (Promega) containing 0.1% Prionex®. The Renilla Luciferase Lysis Buffer […] detergent micelles when using the Renilla Luciferase Assay Reagent. In the absence of other detergents, this prevents sequestering of coelenterazine which inhibits Renilla luciferase-mediated luminescence.
(§4) The luciferase reactions were initiated by adding 40 μl of either the firefly or Renilla luciferase enzyme solution to 200 μl of the appropriate reagent solution (firefly luciferase enzyme solution+firefly luciferase reagent solution or Renilla luciferase enzyme solution+Renilla luciferase reagent solution, respectively). The reactions were performed in an opaque white, 96-well plate and luminescence was measured for 0.5 seconds per well using a Turner BioSystems Veritas™ Microplate luminometer. The retained firefly luciferase and Renilla luciferase luminescence, as well as the selectivity values for each detergent, were calculated (Table 2).

[2] = biological target: T2, firefly luciferase (Photinus pyralis, UniProt P08659); test: biochemical; settings: for remaining activity at 0.5 %: read-out: Retained Firefly Luciferase Luminescence (%)
T2 sequence (P08659 whole entry): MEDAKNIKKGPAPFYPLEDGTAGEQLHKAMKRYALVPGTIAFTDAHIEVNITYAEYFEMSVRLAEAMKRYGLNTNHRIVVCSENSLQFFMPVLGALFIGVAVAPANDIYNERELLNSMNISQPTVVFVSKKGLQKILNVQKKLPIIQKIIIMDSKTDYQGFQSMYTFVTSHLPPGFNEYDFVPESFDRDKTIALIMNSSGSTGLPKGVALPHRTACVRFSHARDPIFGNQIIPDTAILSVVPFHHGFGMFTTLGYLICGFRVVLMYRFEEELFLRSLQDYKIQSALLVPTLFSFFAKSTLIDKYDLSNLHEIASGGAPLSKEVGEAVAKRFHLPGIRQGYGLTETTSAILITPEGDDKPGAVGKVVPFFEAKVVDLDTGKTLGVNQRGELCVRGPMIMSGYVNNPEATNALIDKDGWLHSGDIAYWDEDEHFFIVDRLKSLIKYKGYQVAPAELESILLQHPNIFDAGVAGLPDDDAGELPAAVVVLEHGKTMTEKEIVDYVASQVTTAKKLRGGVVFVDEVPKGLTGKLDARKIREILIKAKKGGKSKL
Protocol: as §1, §2, §3, §4

[3] = biological target: T1, Renilla luciferase; test: Quaternary ammonium/phosphonium detergent screen, Renilla luciferase (Example 5); assay type: biochemical; settings: for remaining activity at 0.1 % / Retained Renilla Luciferase Luminescence (%): Tergitol NP-9 present
Protocol: (§5) Each detergent was added at 0.2% to a reagent solution containing 50 mM Tricine pH 8.3, 3.5 mM MgSO4, 1 mM CDTA, 30 mM thiourea and 0.5% Tergitol NP-9. This solution or one not containing a detergent inhibitor was used to resuspend the Bright-Glo™ luciferin substrate (Promega).
(§6) The luciferase reactions were initiated by adding 100 μl of the firefly luciferase or Renilla luciferase enzyme solutions to 100 μl of reagent solution. The reactions were performed as described above. […] The detergent concentrations listed refer to the final concentration in the reaction.

[4] = biological target: T2, firefly luciferase; test: Quaternary ammonium/phosphonium detergent screen, firefly luciferase (Example 5); assay type: biochemical; settings: Tergitol NP-9 present
Protocol: as §5, §6

[5] = biological target: T1, Renilla luciferase; test: Quaternary ammonium/phosphonium detergent screen, Renilla luciferase (Example 5); assay type: biochemical; settings: final conc. 0.03% detergent; for remaining activity at 0.03 % / Retained Renilla Luciferase Luminescence (%): Tergitol NP-9 present; for remaining activity at 0.03 %: read-out: Retained Renilla Luciferase Luminescence (%)
[6] = biological target: T2, firefly luciferase; test: Quaternary ammonium/phosphonium detergent screen, firefly luciferase (Example 5); assay type: biochemical; settings: final conc. 0.03% detergent, Tergitol NP-9 present; for remaining activity at 0.03 %: read-out: Retained Firefly Luciferase Luminescence (%)
[7] = 0.5% detergent in Renilla Luciferase Assay Reagent
[8] = retained firefly / retained Renilla, 0.5% detergent
[9] = 0.5% detergent in Luciferase Assay Reagent
[10] = final conc. 0.10% detergent, read-out: Retained Renilla Luciferase Luminescence (%)
[11] = final conc. 0.10% detergent, read-out: Retained Firefly Luciferase Luminescence (%)

C[C@H](CCC(=O)NCCC[N+](C)(C)CC(O)CS(=O)(=O)[O-])[C@H]1CC[C@H]2[C@@H]3[C@H](O)C[C@@H]4C[C@H](O)CC[C@]4(C)[C@H]3C[C@H](O)[C@]12C (stereo partly drawn) [CHAPSO]
Retained Renilla Luciferase Luminescence (%) [1, 7]: 52.15% | Selectivity Value [1, 8]: 1.3 | Retained Firefly Luciferase Luminescence (%) [2, 9]: 70.07%

Decamthonium bromide
Retained Renilla Luciferase Luminescence (%) [1, 7]: 76.68% | Selectivity Value [1, 8]: 1.1 | Retained Firefly Luciferase Luminescence (%) [2, 9]: 85.42%

Benzalkonium
Retained Renilla Luciferase Luminescence (%) [1, 7]: 0.04% | Selectivity Value [1, 8]: 5.0 | Retained Firefly Luciferase Luminescence (%) [2, 9]: 0.20%

C[C@H](CCC(=O)NCCS(=O)(=O)O)[C@H]1CC[C@H]2[C@@H]3CC[C@@H]4C[C@H](O)CC[C@]4(C)[C@H]3CC[C@]12C [Taurolithocholic acid]
remaining activity at 0.5 % [1, 7]: 75% | Selectivity Value [1, 8]: 1.1 | remaining activity at 0.5 % [2, 9]: 81.3%

Tergitol NP-9
Retained Renilla Luciferase Luminescence (%) [1]: 27.14% | Selectivity Value [1]: 2.9 | Retained Firefly Luciferase Luminescence (%) [2, 9]: 79.16%

C[N+](C)(C)CCCCCC[N+](C)(C)C [Hexamethonium bromide]
remaining activity at 0.5 % [1, 7]: 91% | Selectivity Value [1, 8]: 1.1 | remaining activity at 0.5 % [2, 9]: 96%

CCCCCCCC[N+](CCCCCCCC)(CCCCCCCC)CCCCCCCC.[Br-] [Tetraoctylammonium bromide]
remaining activity at 0.5 % [1, 7]: 43.1% | Selectivity Value [1, 8]: 1.0 | remaining activity at 0.5 % [2, 9]: 43.7%

C[C@H](CCC(=O)NCCC[N+](C)(C)CCCS(=O)(=O)[O-])[C@H]1CC[C@H]2[C@@H]3[C@H](O)C[C@@H]4C[C@H](O)CC[C@]4(C)[C@H]3C[C@H](O)[C@]12C [CHAPS]
Retained Renilla Luciferase Luminescence (%) [1, 7]: 47.29% | Selectivity Value [1, 8]: 1.6 | Retained Firefly Luciferase Luminescence (%) [2, 9]: 73.84%

C[N+](C)(C)CCCBr.[Br-] [(3-Bromopropyl)trimethylammonium bromide]
remaining activity at 0.5 % [1, 7]: 71.6% | Selectivity Value [1, 8]: 1.0 | remaining activity at 0.5 % [2, 9]: 72.2%

CCCC[P+](CCCC)(CCCC)Cc1ccc(C)cc1.[Cl-] [(4-Methylbenzyl)tributylphosphonium chloride]
Selectivity Value ([3]; final conc. 0.10% detergent): 3.3 | remaining activity at 0.1 % [3, 10]: 32% | remaining activity at 0.1 % [4, 11]: 106% | Selectivity Value [5]: 1.5 | remaining activity at 0.03 % [5]: 65% | remaining activity at 0.03 % [6]: 99%

CC[N+](C)(C)c1cccc(O)c1 [Edrophonium chloride]
Selectivity Value ([3]; final conc. 0.10% detergent): 1.1 | remaining activity at 0.1 % [3, 10]: 89% | remaining activity at 0.1 % [4, 11]: 102% | Selectivity Value [5]: 1.0 | remaining activity at 0.03 % [5]: 93% | remaining activity at 0.03 % [6]: 98%

C[N+](C)(C)CCBr.[Br-] [(2-Bromoethyl)trimethylammonium bromide]
remaining activity at 0.5 % [1]: 78.4% | Selectivity Value [1, 8]: 1.2 | remaining activity at 0.5 % [2]: 91.4%

CC1(C)C=Cc2ccccc2[N+]1(C)C.[I-] [1,1,2,2-Tetramethyl-1,2-dihydor-quinolynium iodide]
Selectivity Value ([3]; final conc. 0.10% detergent): 1.2 | Retained Renilla Luciferase Luminescence (%) ([3]; final conc. 0.10% detergent): 89% | Retained Firefly Luciferase Luminescence (%) ([4]; final conc. 0.10% detergent): 74% | Selectivity Value [5]: 1.0 | Retained Renilla Luciferase Luminescence (%) [5]: 88% | Retained Firefly Luciferase Luminescence (%) [6]: 87%

C[N+]1(C)CCCc2cccc(O)c21.[I-] [1,1-Dimethyl-8-hydroxy-1,2,3,4-tetrahydroquinolium iodide]
Selectivity Value ([3]; final conc. 0.10% detergent): 0.8 | Retained Renilla Luciferase Luminescence (%) ([3]; final conc. 0.10% detergent): 82% | Retained Firefly Luciferase Luminescence (%) ([4]; final conc. 0.10% detergent): 68% | Selectivity Value [5]: 0.9 | Retained Renilla Luciferase Luminescence (%) [5]: 88% | Retained Firefly Luciferase Luminescence (%) [6]: 81%

C[N+](C)(C)CCCCCBr.[Br-] [(5-Bromopentyl)trimethylammonium bromide]
remaining activity at 0.5 % [1, 7]: 75% | Selectivity Value [1, 8]: 1.1 | remaining activity at 0.5 % [2, 9]: 79.1%

[Br-].c1ccc([P+](c2ccccc2)(c2ccccc2)c2ccccc2)cc1 [Tetraphenylphosphonium bromide]
remaining activity at 0.5 % [1, 7]: 24.5% | Selectivity Value [1, 8]: 3.7 | remaining activity at 0.5 % [2, 9]: 90.9%

CC[P+](CC)(CC)Cc1ccccc1.[Br-] [Benzyltriethylphosphonium bromide]
Selectivity Value ([3]; final conc. 0.10% detergent): 2.0 | remaining activity at 0.1 % [3, 10]: 51% | remaining activity at 0.1 % [4, 11]: 102% | Selectivity Value [5]: 1.1 | remaining activity at 0.03 % [5]: 88% | remaining activity at 0.03 % [6]: 97%

CCCCCCCCCC[N+](C)(C)CCCS(=O)(=O)[O-] [Zwittergent 3-10]
Retained Renilla Luciferase Luminescence (%) [1, 7]: 33.45% | Selectivity Value [1, 8]: 2.2 | Retained Firefly Luciferase Luminescence (%) [2, 9]: 73.92%

C[N+](C)(C)Cc1ccccc1.[Br-] [Benzyltrimethylammonium bromide]
Selectivity Value ([3]; final conc. 0.10% detergent): 1.0 | remaining activity at 0.1 % ([3]; read-out: Retained Renilla Luciferase Luminescence (%), final conc. 0.10% detergent): 87% | remaining activity at 0.1 % ([4]; read-out: Retained Firefly Luciferase Luminescence (%), final conc. 0.10% detergent): 100% | Selectivity Value [5]: 1.0 | remaining activity at 0.03 % [5]: 95% | remaining activity at 0.03 % [6]: 99%

CC[N+](CC)(CCC(=O)Nc1c(C)cccc1C)Cc1ccccc1.O=C([O-])c1ccccc1 [Benzyldiethyl(2,6-xylycarbamoylethyl)-ammonium benzoate]
Selectivity Value ([3]; final conc. 0.10% detergent): 2.2 | Retained Renilla Luciferase Luminescence (%) ([3]; final conc. 0.10% detergent): 46% | Retained Firefly Luciferase Luminescence (%) ([4]; final conc. 0.10% detergent): 102% | Selectivity Value [5]: 1.5 | Retained Renilla Luciferase Luminescence (%) [5]: 74% | Retained Firefly Luciferase Luminescence (%) [6]: 110%

s-Acetylthiochloline bromide
Retained Renilla Luciferase Luminescence (%) [1, 7]: 90.65% | Selectivity Value [1, 8]: 0.8 | Retained Firefly Luciferase Luminescence (%) [2, 9]: 70.97%

Sodium deoxycholate
Retained Renilla Luciferase Luminescence (%) [1, 7]: 60.64% | Selectivity Value [1, 8]: 0.7 | Retained Firefly Luciferase Luminescence (%) [2, 9]: 39.75%

(−)-N-dodecyl-N-methyl ephedrium bromide
Selectivity Value ([3]; final conc. 0.10% detergent): 102.1 | Retained Renilla Luciferase Luminescence (%) ([3]; final conc. 0.10% detergent): 1% | Retained Firefly Luciferase Luminescence (%) ([4]; final conc. 0.10% detergent): 102% | Selectivity Value [5]: 7.1 | Retained Renilla Luciferase Luminescence (%) [5]: 15% | Retained Firefly Luciferase Luminescence (%) [6]: 106%
